Laboratory results published in US11944623B2, “Modulators of Kv3 channels to treat pain” (Autifony Therapeutics Limited, priority 2015, dated 2024).

Target: T1, human Kv3.1 channels (Homo sapiens, UniProt P48547)
T1 construct: expressed in transfected cells; host or cells: CHO/Gam/E1A-clone22 (CGE22) cells, transient BacMam transduction
T1 sequence (P48547 1-511): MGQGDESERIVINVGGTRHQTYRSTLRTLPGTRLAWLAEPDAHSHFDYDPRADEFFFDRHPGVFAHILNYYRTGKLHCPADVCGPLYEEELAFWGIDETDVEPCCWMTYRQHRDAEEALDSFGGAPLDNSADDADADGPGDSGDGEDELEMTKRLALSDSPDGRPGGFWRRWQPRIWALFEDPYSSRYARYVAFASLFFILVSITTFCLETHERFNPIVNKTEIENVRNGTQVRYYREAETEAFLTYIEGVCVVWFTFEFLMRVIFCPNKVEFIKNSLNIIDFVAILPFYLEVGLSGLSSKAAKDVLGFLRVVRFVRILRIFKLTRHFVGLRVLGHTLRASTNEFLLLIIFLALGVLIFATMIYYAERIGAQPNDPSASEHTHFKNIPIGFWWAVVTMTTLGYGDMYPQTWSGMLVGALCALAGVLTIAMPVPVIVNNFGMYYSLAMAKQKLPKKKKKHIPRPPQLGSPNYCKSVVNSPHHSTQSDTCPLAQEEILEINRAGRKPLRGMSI
Assay: hKv3.1 IonWorks Quattro whole-cell current potentiation assay
Type: cell-based
Settings: potency as indicated by an EC50 value
Text: The ability of the compounds of the invention to modulate the voltage-gated potassium channel subtypes Kv3.3/Kv3.2/Kv3.1 may be determined using the following assay. Analogous methods may be used to investigate the ability of the compounds of the invention to modulate other channel subtypes.
To assess compound effects on human Kv3.1 channels (hKv3.1), CHO/Gam/E1A-clone22 alias CGE22 cells were transduced using a hKv3.1 BacMam reagent. This cell line was designed to be an improved CHO-K1-based host for enhanced recombinant protein expression as compared to wild type CHO-K1. The cell line was generated following the transduction of CHO-K1 cells with a BacMam virus expressing the Adenovirus-Gam1 protein and selection with Geneticin-G418, to generate a stable cell line, CHO/Gam-A3. CHO/Gam-A3 cells were transfected with pCDNA3-E1A-Hygro, followed by hygromycin-B selection and FACS sorting to obtain single-cell clones. […]
Experiments were conducted at room temperature using IonWorks Quattro™ planar array electrophysiology technology (Molecular Devices Corp.) with PatchPlate™ PPC. […] Planar electrode hole resistances (Rp) were determined by applying a 10 mV voltage step across each well. […]
Test pulses protocol may be performed in the absence (pre-read) and presence (post-read) of the test compound. […]

With `Cc1ccc(Oc2ccc(-n3c(C)n[nH]c3=O)cn2)c2c1OCC21CC1` [Compound 3, 5-methyl-4-{6-[(7-methylspiro[1-benzofuran-3,1′-cyclopropan]-4-yl)oxy]pyridin-3-yl}-2,4-dihydro-3H-1,2,4-triazol-3-one] as the compound, how does the “activity between modulation of Kv3.1 and Kv3.2 channels” value read?
The value was “comparable activity”.
